Source: patent publication US12448369B2 (Edgewise Therapeutics, Inc., priority 2023, dated 2025)
Marks after values point to notes of the source that are not given here.

Key:
[1] = target: T1, Porcine ventricle myofibrils (ventricular myosin ATPase) (Sus scrofa, UniProt P79293); assay: Myofibril ATPase assay, porcine ventricle myofibrils; type: biochemical, porcine (Yucatan minipigs); conditions: porcine ventricle myofibrils
T1 construct: Myofibrils from porcine cardiac muscle was isolated from the left ventricle of Yucatan minipigs; tissue Exemplar Genetics; host or cells: left ventricle of Yucatan minipigs, myofibrils prepared in house
T1 sequence (P79293 whole entry): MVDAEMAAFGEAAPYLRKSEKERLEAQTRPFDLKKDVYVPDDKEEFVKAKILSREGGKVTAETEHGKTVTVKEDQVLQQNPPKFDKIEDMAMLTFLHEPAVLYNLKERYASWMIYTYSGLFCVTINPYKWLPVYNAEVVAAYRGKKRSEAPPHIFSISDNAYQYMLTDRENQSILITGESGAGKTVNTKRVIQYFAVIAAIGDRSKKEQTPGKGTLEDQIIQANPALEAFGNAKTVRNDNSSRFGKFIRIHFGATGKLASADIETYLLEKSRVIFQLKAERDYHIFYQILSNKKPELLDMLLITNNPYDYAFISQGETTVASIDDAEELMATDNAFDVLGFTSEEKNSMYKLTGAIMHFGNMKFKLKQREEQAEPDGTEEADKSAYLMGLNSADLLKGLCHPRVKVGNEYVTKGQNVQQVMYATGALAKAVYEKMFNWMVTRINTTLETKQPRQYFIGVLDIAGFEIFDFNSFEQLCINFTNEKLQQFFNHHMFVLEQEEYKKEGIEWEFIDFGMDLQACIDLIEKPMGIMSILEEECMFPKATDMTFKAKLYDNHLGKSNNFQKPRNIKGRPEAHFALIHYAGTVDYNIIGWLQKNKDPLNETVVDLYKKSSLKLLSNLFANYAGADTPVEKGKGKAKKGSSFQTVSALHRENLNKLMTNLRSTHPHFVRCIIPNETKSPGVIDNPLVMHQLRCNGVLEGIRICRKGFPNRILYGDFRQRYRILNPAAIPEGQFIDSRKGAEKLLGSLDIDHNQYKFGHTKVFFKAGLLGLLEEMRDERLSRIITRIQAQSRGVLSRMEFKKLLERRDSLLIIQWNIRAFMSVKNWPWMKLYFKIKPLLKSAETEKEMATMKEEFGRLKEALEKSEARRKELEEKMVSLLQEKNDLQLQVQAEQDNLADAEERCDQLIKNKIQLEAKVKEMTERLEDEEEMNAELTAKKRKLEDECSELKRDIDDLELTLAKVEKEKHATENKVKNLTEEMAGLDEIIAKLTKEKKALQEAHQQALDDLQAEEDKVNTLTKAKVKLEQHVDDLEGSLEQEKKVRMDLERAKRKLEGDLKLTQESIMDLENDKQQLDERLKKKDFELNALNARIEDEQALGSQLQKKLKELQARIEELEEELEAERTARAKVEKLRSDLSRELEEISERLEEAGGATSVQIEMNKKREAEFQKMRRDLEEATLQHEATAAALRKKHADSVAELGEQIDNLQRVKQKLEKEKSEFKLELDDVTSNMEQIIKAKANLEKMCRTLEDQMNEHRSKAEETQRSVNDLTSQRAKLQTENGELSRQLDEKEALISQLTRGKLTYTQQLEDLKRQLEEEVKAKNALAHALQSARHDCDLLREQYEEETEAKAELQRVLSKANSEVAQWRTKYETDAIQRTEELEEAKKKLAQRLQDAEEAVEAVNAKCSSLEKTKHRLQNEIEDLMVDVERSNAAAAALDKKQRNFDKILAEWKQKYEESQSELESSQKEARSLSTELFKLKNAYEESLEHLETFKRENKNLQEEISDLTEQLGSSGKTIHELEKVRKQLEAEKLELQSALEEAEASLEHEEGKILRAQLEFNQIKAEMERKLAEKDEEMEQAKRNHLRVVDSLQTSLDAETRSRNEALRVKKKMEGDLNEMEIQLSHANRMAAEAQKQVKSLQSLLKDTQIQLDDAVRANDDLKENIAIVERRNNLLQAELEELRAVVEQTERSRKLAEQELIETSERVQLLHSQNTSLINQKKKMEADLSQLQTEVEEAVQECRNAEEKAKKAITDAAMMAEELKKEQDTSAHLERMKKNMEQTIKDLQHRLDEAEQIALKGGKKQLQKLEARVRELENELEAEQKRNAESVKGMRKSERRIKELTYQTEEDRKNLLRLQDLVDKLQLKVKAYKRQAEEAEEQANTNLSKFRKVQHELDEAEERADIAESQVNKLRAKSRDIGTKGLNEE
Procedure, shortened: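 Left-ventricle myofibrils from Yucatan minipigs were tested with a PK/LDH-coupled system, following NADH loss at 340 nm every 1.5-2 min for 75 min. Slopes were normalized to vehicle wells and fit to a 4-parameter logistic model; values are Y75 (25% ATPase reduction) or Y125 concentrations.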

[2] = system: Porcine atria myofibrils (atrial myosin ATPase); assay: Myofibril ATPase assay, porcine atria myofibrils; type: biochemical; conditions: porcine atria myofibrils
Procedure, shortened: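 Atrial myofibril ATPase measured by NADH-coupled absorbance at 340 nm; vehicle-normalized slopes fitted to give Y75 or Y125 values.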

[3] = system: Rabbit Psoas myofibrils (skeletal myosin ATPase); assay: Myofibril ATPase assay, rabbit psoas (skeletal) myofibrils; type: biochemical; conditions: rabbit psoas myofibrils
Procedure, shortened: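 Values derive from concentration–response fits of NADH consumption rates at 340 nm, normalized to vehicle-only wells, as Y75 or Y125. Myofibril ATP turnover was linked to NADH via PK/LDH in Ca/EGTA-buffered PIPES, pH 7.0, and read over 75 min.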

[4] = ‡ Y125 value, not a Y75 value (125% activity relative to no compound)
[5] = Y75 value (75% activity relative to no compound)

SMILES	Ventricular EC25 ([1]; Y75 value (no ‡ mark)) [µM]	Atrial EC25 ([2]; Y75 value (no ‡ mark)) [µM]	Skeletal EC25 [3, 4]	Ventricular EC25 ([1]; Y75 value) [µM]	Atrial EC25 [2, 5] [µM]	Skeletal EC25 ([3]; Y75 value) [µM]	Skeletal EC25 ([3]; Y75 value (no ‡ mark)) [µM]	Skeletal EC25 (Y125 value, marked ‡) ([3]; Y125 value, not a Y75 value)
C[C@@H](NC(=O)C1(c2cc3cc(F)ccc3[nH]c2=O)CC1)c1cc(C#N)ccn1 (single isomer, unassigned) [compound 2536]	100.00	30.59	77.37‡ μM					
C[C@H](NC(=O)Cc1cc2cnccc2[nH]c1=O)c1ccc(F)cc1F [compound 441]				100.00	3.48	1.88		
Cc1ccc2[nH]c(=O)c(CC(=O)N[C@@H](C)c3ncc(C#N)cc3F)cc2n1 [compound 463]				26.99	4.39	9.72		
COc1nccc2[nH]c(=O)c(CC(=O)N[C@@H](C)c3ccc(F)cc3F)cc12 [compound 434]				3.84	0.65	0.13		
Cc1nc(C#N)cnc1[C@H](C)NC(=O)C(F)(F)c1c(C)c2cc(F)ccc2[nH]c1=O (single isomer, unassigned) [compound 2568]	0.58	0.57					0.11	
C[C@H](C(=O)N[C@H](C)c1ncc(C#N)cc1F)c1cc2c(F)c(F)ccc2[nH]c1=O (single isomer, unassigned) [compound 2599]	16.66	2.16	100.00‡ μM					
Cc1cc(C#N)nnc1[C@@H](C)NC(=O)Cc1c(C)c2cc(F)ccc2[nH]c1=O [compound 1058]	6.86	1.92					29.21	
Cc1nc(C#N)cnc1[C@H](C)NC(=O)Cc1c(C)c2c(F)c(F)ccc2[nH]c1=O [compound 1140]	0.06	0.08					0.00	
N#Cc1cnc2c(n1)CC[C@H]2NC(=O)Cc1cc2cc(F)c(F)cc2[nH]c1=O [compound 1082]	100.00	100.00					100.00	
C[C@H](NC(=O)Cc1cc2nc(C(F)(F)F)ccc2[nH]c1=O)c1ccc(F)cc1F [compound 397]				32.40	100.00	1.87		
Cc1c([C@H](C)C(=O)N[C@@H](C)c2ccc(F)cc2F)c(=O)[nH]c2ccnc(F)c12 (single isomer, unassigned) [compound 375]				4.58	0.27	0.17		
N#Cc1cc(F)c2c(c1)OC[C@@H]2NC(=O)C1(c2cc3c(F)c(F)ccc3[nH]c2=O)CC1 (single isomer, unassigned) [compound 4822]	0.48	0.16					0.08	
Cc1c(CC(=O)N[C@H](C)c2ccc(C#N)nn2)c(=O)[nH]c2cccc(C#N)c12 [compound 1038]	2.7	0.42					0.34	
Cc1c(C(C)C(=O)N[C@@H](C)c2ccc(F)cc2F)c(=O)[nH]c2ccnc(C#N)c12 (stereo partly drawn) [compound 363]				2.83	0.36	0.04		
COc1ccc2[nH]c(=O)c(CC(=O)N[C@@H](C)c3ccc(F)cc3F)cc2c1C#N [Compound 81, (S)-2-(5-Cyano-6-methoxy-2-oxo-1,2-dihydroquinolin-3-yl)-N-(1-(2,4-difluorophenyl)ethyl) acetamide]	100.00	100.00					51.89	
Cc1c(C(F)(F)C(=O)N[C@H](C)c2cc(C#N)ccn2)c(=O)[nH]c2ccc(F)cc12 (single isomer, unassigned) [compound 2575]	20.79	16.13					14.65	
Cc1cccc([C@@H](C)NC(=O)Cc2c(C)c3c(C)nccc3[nH]c2=O)c1 (single isomer, unassigned) [compound 339]				100.00	100.00	100.00		
Cc1nnccc1C(C)NC(=O)Cc1cc2cc(F)c(F)cc2[nH]c1=O (stereo not drawn) [compound 2073]	100.00	100.00					100.00	

Results, then the compound that gave them:

Ventricular EC25 ([1]; Y75 value (no ‡ mark)) [µM]	Atrial EC25 ([2]; Y75 value (no ‡ mark)) [µM]	Skeletal EC25 [3, 4]	Ventricular EC25 ([1]; Y75 value) [µM]	Atrial EC25 [2, 5] [µM]	Skeletal EC25 ([3]; Y75 value) [µM]	Skeletal EC25 ([3]; Y75 value (no ‡ mark)) [µM]	Skeletal EC25 (Y125 value, marked ‡) ([3]; Y125 value, not a Y75 value)	SMILES
			1.19	0.34	0.11			Cc1c(CC(=O)N[C@H](C)c2ccc(C#N)cc2F)c(=O)[nH]c2ccnc(C(F)(F)F)c12 [compound 161]
			1.11	0.25	0.21			Cc1c(CC(=O)N[C@@H](C)c2ncc(F)cc2F)c(=O)[nH]c2ccnc(C(F)(F)F)c12 (single isomer, unassigned) [compound 266]
			1.51	0.12	0.03			Cc1c(CC(=O)N[C@@H](C)c2ccc(F)cc2F)c(=O)[nH]c2ccnc(OC3CC3)c12 [compound 386]
			100.00	10.04	5.99			C[C@H](NC(=O)Cc1c(C(F)(F)F)c2c(C3CC3)nccc2[nH]c1=O)c1ccc(C#N)nn1 (single isomer, unassigned) [compound 3004]
			17.07	0.94			97.12‡ μM	Cc1nccc2[nH]c(=O)c(C3(C(=O)N[C@H](C)c4ncc(C#N)cc4F)CC3)c(C)c12 (single isomer, unassigned) [compound 3519]
			100.00	48.27	100.00			Cc1nccc2[nH]c(=O)c(CC(=O)N[C@@H](C)c3ccc(C#N)nn3)c(C)c12 [compound 485]
0.29	0.12					0.05		Cc1c(CC(=O)N[C@@H](C)c2ncc(C#N)cn2)c(=O)[nH]c2ccc(F)c(C#N)c12 (single isomer, unassigned) [compound 2016]
			100.00	65.72	100.00			Cc1ccc2[nH]c(=O)c(CC(=O)N[C@H](C)c3ncc(C#N)cc3F)cc2n1 [compound 462]
			100.00	100.00	0.34			COc1nccc2[nH]c(=O)c(CC(=O)N[C@@H](C)c3ccc(F)cc3F)c(C(F)(F)F)c12 [compound 423]
			17.65	1.25	4.13			C[C@@H](NC(=O)Cc1c(C(F)(F)F)c2c(C3CC3)nccc2[nH]c1=O)c1ncc(C#N)cn1 (single isomer, unassigned) [compound 3001]
			100.00	0.49	0.19			Cc1ccc2[nH]c(=O)c(CC(=O)N[C@@H](C)c3ccc(F)cc3F)c(C(F)(F)F)c2n1 [compound 419]
			100.00	2.77	47.80			Cc1c(CC(=O)N[C@H](C)c2ncc(C#N)cc2F)c(=O)[nH]c2ccc(O)nc12 [compound 165]
			3.12	0.33	0.21			Cc1c(CC(=O)N[C@@H](C)c2ccc(C#N)cn2)c(=O)[nH]c2ccnc(C(F)(F)F)c12 [compound 156]
